Test results: PMC11407620, “Repurposing auranofin and meclofenamic acid as energy-metabolism inhibitors and anti-cancer drugs” (PLOS ONE, 2024)
Read-outs that look alike come from different tables or passages of the source.

Legend:
Breast MDA-MB-231 cells = experiment: Cell proliferation, 24 h drug exposure; type: cell-based, human; settings: Breast MDA-MB-231, 24 h, read-out: IC50 for proliferation cell rate
Protocol: (§1) All metastatic (breast MDA-MB231, MDA-MB468, cervix HeLa, prostate PC3, colorectal HCT116, COLO205, glioblastoma U373), low-metastatic (breast MCF-7) cancer and non-cancer (fibroblast 3T3, cardiomyocytes H9C2) cell lines (American Type Culture Collection, Rockville, MD, USA) used in this study were cultured in Petri dishes in 20 mL of Dulbecco’s Modified Eagle’s Medium (DMEM, Sigma, MO, USA) supplemented with 10% fetal bovine serum (Biowest, Mexico) and 10,000 U penicillin/streptomycin (Sigma-Aldrich, MO, USA). […] For growth and maintenance, cells were incubated in 5% CO2/95% air at 37°C and kept until 80–90% of confluence was reached. Then, cells were harvested, washed by centrifugation and resuspended in Krebs-Ringer buffer (KR, 125 mM NaCl, 5 mM KCl, 25 mM Hepes, 1 mM MgCl2, 1 mM KH2PO4, 1.4 mM CaCl2, pH 7.4) for further use. For experimentation, cancer cells (3–5 x 10^6 cells) were cultured in DMEM (with 25 mM glucose) for 24 h in the absence of drugs. Afterwards, old-medium was replaced with fresh DMEM medium (with 25 mM glucose) in the absence (control, non-treated cells) or in the presence of logarithmic concentrations of Aur and MA for 24 h more, under the same culture conditions described above. Viability of cultured cells was determined by the trypan blue exclusion assay. The protein concentration was determined by the Lowry method.
(§2) For cell proliferation in the presence of drugs, cancer cells (20 x 10^3 cells/well) were grown in 96-well plates containing DMEM (Sigma-Aldrich) plus 10% bovine fetal serum for 24 h. Afterwards, Aur or MA (0.01, 0.1, 10 and 100 μM) were added to the cell cultures and incubated for additional 24 h. The effect of these drugs on cell proliferation was determined in 96-well plates by the MTT (3-[4,5-dimethyl-thiazol-2-yl]-2,5-diphenyltetrazolium bromide) assay. The viability of cancer cells was > 95% after treatment with drugs.

Glioblastoma U373 cells = experiment: Cell proliferation, 24 h drug exposure; type: cell-based, human; settings: Glioblastoma U373, 24 h, read-out: IC50 for proliferation cell rate
Protocol: as §1
as §2, with “Afterwards, Aur or MA (0.01, 0.1, 10 and 100 μM) were added to the cell cultures and incubated for additional 24 h.” left out

Cervix HeLa cells = experiment: Cell proliferation, 24 h drug exposure; type: cell-based, human; settings: Cervix HeLa, 24 h, read-out: IC50 for proliferation cell rate
Protocol: as §1
as §2, with “Afterwards, Aur or MA (0.01, 0.1, 10 and 100 μM) were added to the cell cultures and incubated for additional 24 h.” left out

HeLa cells = test system: HeLa cells; parameters: method as in PMID 33333716; settings: CP alone at doses of Table 5; cited from earlier work
cancer cell lines = experiment: Cancer cell proliferation, pooled over the cell lines of Table 1; type: cell-based, human; settings: for IC50: Homo sapiens, cancer cells, 24 h, read-out: IC50 values on cancer cell proliferation (range over cell lines)
Protocol: as §1
as §2, with “Afterwards, Aur or MA (0.01, 0.1, 10 and 100 μM) were added to the cell cultures and incubated for additional 24 h.” left out

[1] = test system: HeLa, U373, HCT116, MDA-MB-231 and MDA-MB-468 cells; experiment: Cell invasiveness, Boyden chamber; type: cell-based, human; settings: perhexiline 4–20 μM; 24 h
Protocol: The 96-multiwell Boyden chambers (Merck Millipore, MA, USA) assay was performed for cellular invasiveness detection. Cancer cells (5 × 10^4 cells/well) were re-suspended in free-serum DMEM and placed in the upper Boyden chamber compartment. Free-serum DMEM was also placed in the lower compartment of the chamber. Afterwards, the Boyden chamber was placed at 37°C and 95% air/5% CO2 for 24 h. Invasive cancer cells within the lower chamber compartment were detected by using the calcein-AM (60 nM, 1 h) assay at 37°C. Calcein-fluorescence was measured at λexcitation = 485 nm and λemission = 520 nm in a Nunclon microplate reader (Roskilde, Denmark).
S1 Figure. Cancer invasiveness assay in metastatic cancer cells exposed to MA (A) and perhexiline (B) for 24 h. All cancer cell invasiveness was compared with MDA-MB-231 cells, which are cancer cells with the highest invasiveness ability. n=3; *P < 0.05 vs. MDA-MB-231 non-treated cells.

non-cancer cells = experiment: Non-cancer cell proliferation, pooled; type: cell-based; settings: Mus musculus, 24 h, read-out: IC50 values for non-cancer cells (range)
Protocol: as §1, with “For experimentation, cancer cells (3–5 x 10^6 cells) were cultured in DMEM (with 25 mM glucose) for 24 h in the absence of drugs. Afterwards, old-medium was replaced with fresh DMEM medium (with 25 mM glucose) in the absence (control, non-treated cells) or in the presence of logarithmic concentrations of Aur and MA for 24 h more, under the same culture conditions described above.” left out
For cell proliferation in the presence of drugs, cancer cells (20 x 10^3 cells/well) were grown in 96-well plates containing DMEM (Sigma-Aldrich) plus 10% bovine fetal serum for 24 h. […] The effect of these drugs on cell proliferation was determined in 96-well plates by the MTT (3-[4,5-dimethyl-thiazol-2-yl]-2,5-diphenyltetrazolium bromide) assay. […]

Breast MCF-7 cells = experiment: Cell proliferation, 24 h drug exposure; type: cell-based, human; settings: Homo sapiens, MCF7; Breast MCF-7 (low metastatic); 24 h; read-out: IC50 for proliferation cell rate
Protocol: as §1, §2

Colorectal COLO205 cells = experiment: Cell proliferation, 24 h drug exposure; type: cell-based, human; settings: Homo sapiens, COLO 205; Colorectal COLO205; 24 h; read-out: IC50 for proliferation cell rate
Protocol: as §1, §2

Breast MDA-MB-468 cells = experiment: Cell proliferation, 24 h drug exposure; type: cell-based, human; settings: Homo sapiens; Breast MDA-MB-468; 24 h; read-out: IC50 for proliferation cell rate
Protocol: as §1, §2

Colorectal HCT116 cells = experiment: Cell proliferation, 24 h drug exposure; type: cell-based, human; settings: Homo sapiens, HCT-116; Colorectal HCT116; 24 h; read-out: IC50 for proliferation cell rate
Protocol: as §1, §2

[2] = test system: H9C2 mouse cardiomyocytes; experiment: Cell proliferation, 24 h drug exposure (non cancer cells); type: cell-based; settings: read-out: IC50 for proliferation cell rate
Protocol: as §1, §2

3T3 mouse fibroblasts = experiment: as above; type: cell-based; settings: Fibroblast, 3T3 mouse fibroblasts (non cancer), read-out: IC50 for proliferation cell rate
Protocol: as §1, §2

[3] = test system: MDA-MB-231 and MDA-MB-468 cells; experiment: Cell migration, wound healing assay; type: cell-based; settings: Homo sapiens; 15 μM perhexiline
Protocol: The wound healing assay was performed for cell migration detection. In petri dishes with full DMEM, cancer cells (5 x 10^6 cells/well) were cultured at 37°C under 95% air and 5% CO2 until 80–90% confluence was attained. Afterwards, cell culture was wounded with a 1 mL pipette tip, washed twice with PBS (155 mM NaCl, 1.5 mM KH2PO4, 2.7 mM NaH2PO4, pH 7.2) and subsequently incubated at 37°C with fresh non-serum DMEM. Cellular migration images were taken in an inverted microscope (Zeiss, Thornwood, NY, USA) after 0 and 24 h incubation time. Using a graduated reticule (Zeiss, Thornwood, NY, USA), cellular migration was assessed from the petri dish’s border to its center distance travelled.
S2 Figure. Migratory capacity in metastatic triple negative breast cancer cells exposed to perhexiline. n=3; *P < 0.05 vs. Control (Non-treated cells)

[4] = test system: HeLa, MDA MB-231, and A548 (lung cancer) cells; experiment: Oxygen consumption of cancer cells; type: cell-based; settings: Homo sapiens, MDA MB-231, A548 cells
Protocol: For oxidative phosphorylation (OxPhos) flux, cells (2–5 mg protein/mL) were incubated at 37°C in air saturated KR medium plus 5 mM glucose. To distinguish the oxygen consumption associated to OxPhos, the cells were incubated with 5 μM oligomycin (Sigma-Aldrich, MO, USA), a potent, specific, and permeable inhibitor of the mitochondrial ATP synthase. The net OxPhos rate was determined by using a Clark type electrode, as previously described and by using a high-resolution respirometer (Oroboros Instruments, Innsbruck, Austria) at 37°C. The contribution of OxPhos and glycolysis to the cellular ATP supply was determined, respectively, from the net OxPhos rate (oligomycin-sensitive respiration) multiplied by the ATP/O or P»/O2 ratio that corresponds to 2.5 or 5, and from the rate of lactate production, assuming a stoichiometry of 1 mol of ATP produced per 1 mol of lactate produced.

Prostate PC3 cells = experiment: Cell proliferation, 24 h drug exposure; type: cell-based, human; settings: Homo sapiens, PC-3; Prostate PC3; 24 h; read-out: IC50 for proliferation cell rate
Protocol: as §1, §2

IC50 (cancer cell lines) [µM]	IC50 (Breast MDA-MB-231 cells; Homo sapiens) [µM]	IC50 (Breast MCF-7 cells) [µM]	IC50 (Colorectal COLO205 cells) [µM]	IC50 (Breast MDA-MB-468 cells) [µM]	IC50 (Colorectal HCT116 cells) [µM]	IC50 (Glioblastoma U373 cells; Homo sapiens, U373 MG) [µM]	IC50 (Cervix HeLa cells; Homo sapiens) [µM]	IC50 (Prostate PC3 cells) [µM]	Compound	IC50 (Breast MDA-MB-231 cells) [µM]	IC50 (Glioblastoma U373 cells) [µM]	IC50 (Cervix HeLa cells) [µM]	effect on proliferation rate, OxPhos, cellular invasiveness (HeLa cells)	inhibition of cell invasiveness [1]	IC50 (non-cancer cells) [µM]	IC50 [2] [µM]	IC50 (3T3 mouse fibroblasts) [µM]	inhibition at 15 µM [3] [%]	inhibition at 10 µM [4] [%]	effect on cancer cell proliferation (cancer cell lines; up to 500 μM, 24 h incubation)
–	–	–	–	–	–	–	–	–	N.N.[Cl][Pt][Cl] [CP, cisplatin]	72	> 1000	> 1000	no effect	–	–	–	–	–	–	–
4 to 20	11 ± 0.6	20.5 ± 10	16 ± 5	15 ± 0.8	16 ± 7	18.5 ± 2	4 ± 3	–	C1CCC(C(CC2CCCCN2)C2CCCCC2)CC1 (stereo not drawn) [Perhexiline]	–	–	–	–	37–53%	30 to 100	> 100	81.5 ± 8	50 to 60	36 to 70	–
31 to 147	111 ± 45	126 ± 65	–	–	147 ± 58	131 ± 41	31 ± 13	31 ± 16	CCC(C)(C)C(=O)O[C@H]1C[C@@H](C)C=C2C=C[C@H](C)[C@H](CC[C@@H]3C[C@@H](O)CC(=O)O3)[C@H]21 [Simvastatin]	–	–	–	–	–	100 to 222	100 ± 32	222 ± 60	–	–	–
–	463	> 500	–	–	> 500	> 500	> 500	–	CC1=C(CC(=O)O)c2cc(F)ccc2/C1=C\c1ccc([S+](C)[O-])cc1 (stereo not drawn) [Sulindac]	–	–	–	–	–	–	> 500	> 500	–	–	not significantly affected
